Laboratory results published in article PMC11068671, “New-generation biofilm effective antimicrobial peptides and a real-time anti-biofilm activity assay: CoMIC” (Applied Microbiology and Biotechnology, 2024).
≈ marks a conversion by molar mass, not a printed value. Non-standard residues stand in square brackets, D forms with d. Residues, ends and D or L forms follow the SMILES beside them.

Tests used:
S. aureus 29213 biofilm [1] = assay: Real-time monitoring of antibiofilm activity, CoMIC method; format: cell-based
Protocol: (§1) 1:2 serial dilutions of ciprofloxacine (200–0 µg/mL) and sodium hypochlorite (5–0%) were prepared in Congo Red Broth media with sucrose. S. aureus 29213 were added into culture media with a final concentration of 1×10^6 Colony-forming unit/mL (CFU/mL). All cultures were performed as triplicate and incubated at 37°C overnight and fluorescence measurements were conducted by using Varioscan (Thermo, USA). The excitation/emission wavelengths were used as 525/625 nm. As a replica plate, bacteria in the same broth media, except Congo Red were cultured and analyzed with conventional Crystal Violet (CV) method. For this purpose, the bacterial cultures were removed, and wells were washed with distilled water. There was 200 µl of 1% CV dye added to each well and incubated at room temperature for 15 min in the dark. Then, CV dye was removed, and wells were washed with water. After the plate was dry, 33% acetic acid was added into wells to dissolve the dye and wells were spectrophotometrically read by Varioscan (Thermo, USA) at 590 nm (Stepanović et al. [2000]).

S. aureus 29213 biofilm [2] = assay: Antibiofilm activity, crystal violet (CV) replica plate; format: cell-based; conditions: CV method
Protocol: as §1

3T3 cell line = assay: in vitro; format: cell-based
Excerpt: (§2) MTT Cell Proliferation Kit (Sigma), a colorimetric method, was used for this test to evaluate the damage that peptides can cause in eukaryotic cells and all cell lines used in this study have been deposited in a collection of the Research Laboratory of Acibadem Mehmet Ali Aydinlar University. The cell lines of 3T3 (ATCC CRL-1658) and HaCaT (ATCC PCS-200-011) were revived under appropriate culture conditions and made ready for the experiment. The final concentration of peptides reached 64 to 0.5 μg/mL. Samples were worked in triplicates for each concentration. Cells incubated without peptide-treatment under the same conditions were used as a control. Magainin II, a known natural AMP that has no cytotoxic effects, was used as a positive control (Bacalum and Radu [2015]). The results were analyzed by reading them with a 96-well plate reader at 550 and 690 nm.

in vitro = format: cell-based
Excerpt: as §2

HaCaT cell line = assay: in vitro; format: cell-based
Excerpt: as §2

MRSA biofilm [3] = assay: Antibiofilm activity, CoMIC method; format: cell-based, Methicillin-resistant S. aureus; conditions: peptides added just before the start of biofilm formation
Protocol: Ninety microliters of 0.5 McF Methicillin-resistant S. aureus (MRSA) (1.5×10^8 CFU/mL) in Congo Red Broth media with fructose was transferred into wells. Plates were incubated at 37°C. At the time just before the start of biofilm formation as optimized in Fig. 4, 10 µL of 1:2 serial dilutions of the antimicrobial peptides (2560–0 µg/mL) was added in wells. So that, final concentrations of peptides were 256–0 µg/mL. Incubation of media continued overnight. Then, wells were evaluated according to their black color formation.

VRE = format: cell-based, Vancomycin-resistant Enterococcus
Excerpt: (§3) NET1, NET2, NET3, and NET4 peptide antibiotics were used in the experiments. For the purpose of the study, both clinical isolates Methicillin-Resistant S. aureus (MRSA), Vancomycin-resistant Enterococcus (VRE), E. coli ER2566, E. coli 13846 bacteria and ATCC strains S. aureus and E. coli bacteria were used in the MIC study. All strains used in this study have been deposited in a strain collection of the Research Laboratory of Acibadem Mehmet Ali Aydinlar University. For experiment 0.5 McFarland bacterial suspension was prepared in Müeller Hinton Broth (MHB) media. In the 96-well plate, serial dilutions of peptide antibiotics starting from 512 to 0 μg/mL were made in MHB media and added 5 µl of bacterial suspensions. After incubated overnight at 37°C, results were evaluated according to turbidity (Teh et al. [2017]). Ampicillin was used as positive controls.

E. coli NTCC13846 = format: cell-based
Excerpt: as §3

E. coli ATCC25922 = format: cell-based
Excerpt: as §3

S. aureus ATCC25923 = format: cell-based
Excerpt: as §3

E. coli ER2566 = format: cell-based
Excerpt: as §3

S. aureus ATCC29213 = format: cell-based
Excerpt: as §3

MRSA = format: cell-based, Methicillin-Resistant S. aureus
Excerpt: as §3

MRSA biofilm [4] = assay: Antibiofilm activity, conventional crystal violet (CV) method; format: cell-based, Methicillin-resistant S. aureus; conditions: for concentration that could be enough to inhibit the biofilms completely: allowing for deviation of about 16.7 in non-specific CV binding; for Peptide concentration inhibiting the biofilm at 100%, Crystal Violet: peptides added at the very beginning of culture
Protocol: There was 90 µL of 10^6 CFU/mL MRSA in MHB media with fructose transferred into wells. Then, 10 µL of 1:2 serial dilutions of the antimicrobial peptides (1280–0 µg/mL) was added in wells. So that, final concentrations of peptides were 128–0 µg/mL. Plates were incubated at 37°C overnight. After overnight incubation, they were analyzed with conventional CV method. For this purpose, the bacterial cultures were removed, and wells were washed with distilled water. 200 µl of 1% CV dye was added to each well and incubated at room temperature for 15 min in the dark. Then, CV dye was removed, and wells were washed with water. After dried the plate in an oven at 45–50°C, 33% acetic acid was added into wells to dissolve the dye and wells were spectrophotometrically read by Varioscan (Thermo, USA) at 590 nm (Stepanović et al. [2000]). Biofilm inhibiton rates (%) were calculated by the following formula (Liu et al. [2021]): (1-A590ofwellstreatedwithpeptides/[…])×100
Before this calculation, the values obtained from all wells were subtracted from the value from the empty wells (Blank).

erythrocytes = format: cell-based
Protocol: Hemolytic activity assays were carried out using erythrocytes, using triton X-100 as lysis control agent. Hemolytic activities were analyzed by reading each well with a plate reader spectrophotometer device at 414 nm and the % lysis rate was calculated in Microsoft Excel according to the following formula (Eren et al. [2008]). Lysis%=[OD414-OD414blank]/[OD414totallysis-OD414blank]×100

Proteinase K = Proteinase K (Parengyodontium album, UniProt P06873); assay: Protease resistance, Proteinase K treatment with HPLC analysis; format: in vitro ADME; conditions: analytical HPLC
Chain of Proteinase K (P06873 106-384): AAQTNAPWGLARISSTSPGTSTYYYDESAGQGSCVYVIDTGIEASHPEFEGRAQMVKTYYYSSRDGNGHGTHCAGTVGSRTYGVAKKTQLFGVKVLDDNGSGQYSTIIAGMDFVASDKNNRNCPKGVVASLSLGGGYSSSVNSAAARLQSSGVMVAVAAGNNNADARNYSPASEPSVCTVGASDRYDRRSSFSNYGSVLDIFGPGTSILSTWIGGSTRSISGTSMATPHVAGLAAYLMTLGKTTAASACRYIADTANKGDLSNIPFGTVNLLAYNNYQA
Protocol: Proteinase K was used for testing the resistance of the designed peptides to proteases, since Proteinase K, a serine protease with broad-spectrum cleavage activity that preferentially cleaves aliphatic and aromatic amino acid residues, is widely used in the literature to determine the protease resistance of antimicrobial peptides (Lucio et al. [2017], Wang et al. [2019]). Afterwards, HPLC characterization was performed to understand the effect of Proteinase K on peptides.

[5] = S. aureus 29213, added at the very beginning of the biofilm culture
[6] = S. aureus 29213, added just before the start of biofilm formation
[7] = S. aureus 29213, added in the very beginning
[8] = S. aureus 29213, added just before biofilm formation

SMILES | MIC for biofilms (S. aureus 29213 biofilm [1]; [5]) | MIC for biofilms (S. aureus 29213 biofilm [1]; [6]) | MIC for biofilms (S. aureus 29213 biofilm [2]; [7]) | MIC for biofilms (S. aureus 29213 biofilm [2]; [8]) | therapeutic index for cytotoxic activities (3T3 cell line) | IC50 (in vitro; human) | IC50 (in vitro; mouse) | IC50 value as times the MIC value (HaCaT cell line) | therapeutic index for cytotoxic activities (HaCaT cell line) | Peptide concentration inhibiting the biofilm at 100%, CoMIC (MRSA biofilm [3]) | MIC (VRE) | MIC (E. coli NTCC13846) | MIC (E. coli ATCC25922) | MIC (S. aureus ATCC25923) | MIC (E. coli ER2566) | MIC (S. aureus ATCC29213) | MIC (MRSA) | Peptide concentration inhibiting the biofilm at 100%, Crystal Violet (MRSA biofilm [4]) | therapeutic index for hemolytic activities (erythrocytes) | resistance to proteases (HPLC after proteinase K treatment) (Proteinase K) | further results
O=C(O)c1cn(C2CC2)c2cc(N3CCNCC3)c(F)cc2c1=O [ciprofloxacin] | 50 µg/mL | > 200 µg/mL | 12.5 µg/mL | > 200 µg/mL |  |  |  |  |  |  |  |  |  |  |  |  |  |  |  |  | 
CC(C)C[C@@H](NC(=O)[C@H](N)CCCNC(=N)N)C(=O)N[C@H](CC(C)C)C(=O)N[C@H](CC(C)C)C(=O)N[C@H](CCCNC(=N)N)C(=O)N[C@H](CC(C)C)C(=O)N[C@H](CC(C)C)C(=O)N[C@H](CCCNC(=N)N)C(=O)N[C@H](CCCNC(=N)N)C(=O)N[C@H](CC(C)C)C(=O)N[C@H](CC(C)C)C(=O)N[C@H](CCCNC(=N)N)C(=O)N[C@H](CC(C)C)C(=O)N[C@H](CC(C)C)C(=O)N[C@H](CC(C)C)C(=O)N[C@H](CCCNC(=N)N)C(N)=O [NET4, RLLLRLLRRLLRLLLR-NH2] (H-[dR][dL][dL][dL][dR][dL][dL][dR][dR][dL][dL][dR][dL][dL][dL][dR]-NH2; N-terminus assumed) |  |  |  |  | 8 | > 128 µg/mL | > 128 µg/mL | 4-16 times | 8 | >256 µg/mL | 2 µg/mL (≈ 0.959 µM) | 32 µg/mL (≈ 15.3 µM) | 8 µg/mL (≈ 3.84 µM) | 16 µg/mL (≈ 7.67 µM) | 1 µg/mL (≈ 0.479 µM) | 16 µg/mL (≈ 7.67 µM) | 16 µg/mL (≈ 7.67 µM) | 128 µg/mL | 4 | not fractionated by proteases | cytotoxicity at 64 µg/ml (in vitro; human): > 50%; concentration that could be enough to inhibit the biofilms completely (MRSA biofilm [4]; CV method): 64 µg/mL
CC(C)C[C@H](NC(=O)[C@H](CC(C)C)NC(=O)[C@H](CC(C)C)NC(=O)[C@H](CCCNC(=N)N)NC(=O)[C@H](CC(C)C)NC(=O)[C@H](CC(C)C)NC(=O)[C@H](CCCNC(=N)N)NC(=O)[C@H](CCCNC(=N)N)NC(=O)[C@H](CC(C)C)NC(=O)[C@H](CC(C)C)NC(=O)[C@H](CCCNC(=N)N)NC(=O)[C@H](CC(C)C)NC(=O)[C@H](CC(C)C)NC(=O)[C@H](CC(C)C)NC(=O)[C@@H](N)CCCNC(=N)N)C(=O)N[C@@H](CCCNC(=N)N)C(N)=O [NET2, RLLLRLLRRLLRLLLR-NH2] (H-RLLLRLLRRLLRLLLR-NH2; N-terminus assumed) |  |  |  |  | 2 | > 128 µg/mL | > 128 µg/mL | 2-4 times | 2 | >256 µg/mL | 2 µg/mL (≈ 0.959 µM) | 64 µg/mL (≈ 30.7 µM) | 64 µg/mL (≈ 30.7 µM) | 32 µg/mL (≈ 15.3 µM) | 4 µg/mL (≈ 1.92 µM) | 64 µg/mL (≈ 30.7 µM) | 64 µg/mL (≈ 30.7 µM) | 128 µg/mL | 1 | completely degraded | concentration that provided over 50% biofilm inhibition (MRSA biofilm [4]; CV method): 64 µg/mL; HC50 value as times the MIC value (erythrocytes): 2–8 times
CC(C)C[C@H](NC(=O)[C@H](N)CCCNC(=N)N)C(=O)N[C@@H](CC(C)C)C(=O)N[C@@H](CC(C)C)C(=O)N[C@H](CCCNC(=N)N)C(=O)N[C@@H](CC(C)C)C(=O)N[C@@H](CC(C)C)C(=O)N[C@H](CCCNC(=N)N)C(=O)N[C@H](CCCNC(=N)N)C(=O)N[C@@H](CC(C)C)C(=O)N[C@@H](CC(C)C)C(=O)N[C@H](CCCNC(=N)N)C(=O)N[C@@H](CC(C)C)C(=O)N[C@@H](CC(C)C)C(=O)N[C@@H](CC(C)C)C(=O)N[C@H](CCCNC(=N)N)C(N)=O [NET3, RLLLRLLRRLLRLLLR-NH2] (H-[dR]LLL[dR]LL[dR][dR]LL[dR]LLL[dR]-NH2; N-terminus assumed) |  |  |  |  | 16 | 64 µg/mL (≈ 30.7 µM) | 32 µg/mL (≈ 15.3 µM) | 16-32 times | 32 | 128 µg/mL | 0.5 µg/mL (≈ 0.24 µM) | 2 µg/mL (≈ 0.959 µM) | 4 µg/mL (≈ 1.92 µM) | 2 µg/mL (≈ 0.959 µM) | 0.5 µg/mL (≈ 0.24 µM) | 2 µg/mL (≈ 0.959 µM) | 2 µg/mL (≈ 0.959 µM) | 4 µg/mL | 32 | not fractionated by proteases | concentration that could be enough to inhibit the biofilms completely (MRSA biofilm [4]; CV method): less than 1 µg/mL; HC50 value as times the MIC value (erythrocytes): 16–32 times
[Na+].[O-]Cl [sodium hypochlorite] | 1.25% | 1.25% | 1.25% | 5% |  |  |  |  |  |  |  |  |  |  |  |  |  |  |  |  | 
